The supplement of paper PMC10307832

Key:
Experiment in all cases: relative viability (nuclei count vs DMSO), 5 days (fraction); higher = more cells survive
[1] = compound: CO[C@@H]1[C@H](N(C)C(=O)c2ccccc2)C[C@H]2O[C@]1(C)n1c3ccccc3c3c4c(c5c6ccccc6n2c5c31)C(=O)NC4 [Midostaurin] + CC(C)C[C@H](NC(=O)[C@H](Cc1ccccc1)NC(=O)c1cnccn1)B(O)O [Bortezomib] (partner 0.002 µM)
Method in brief: (§1)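 Relative viability equals treated-well nuclei counts divided by vehicle-well nuclei counts. Counts came from 4× images of lung cancer cell lines grown in 1536-well plates for 5 days after pin-tool dosing on the day after seeding. Dosing used one drug alone or a fixed anchor-drug dose plus five library-drug doses (not always all listed) in √10 steps, and values are medians of duplicate plates.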

[2] = compound: CO[C@@H]1[C@H](N(C)C(=O)c2ccccc2)C[C@H]2O[C@]1(C)n1c3ccccc3c3c4c(c5c6ccccc6n2c5c31)C(=O)NC4 [Midostaurin] + C[C@@H](Oc1cc(-c2cnn(C3CCNCC3)c2)cnc1N)c1c(Cl)ccc(F)c1Cl [Crizotinib] (partner 1 µM)
Method in brief: as §1

[3] = compound: COc1cc(-c2nn([C@H]3CC[C@H](N4CCN(C(C)=O)CC4)CC3)c3ncnc(N)c23)ccc1NC(=O)c1cc2ccccc2n1C + CC(C)C[C@H](NC(=O)[C@H](Cc1ccccc1)NC(=O)c1cnccn1)B(O)O [Bortezomib] (partner 0.002 µM)
Method in brief: as §1

[4] = compound: CO[C@@H]1[C@H](N(C)C(=O)c2ccccc2)C[C@H]2O[C@]1(C)n1c3ccccc3c3c4c(c5c6ccccc6n2c5c31)C(=O)NC4 [Midostaurin] + CC(=O)c1c(C)c2cnc(Nc3ccc(N4CCNCC4)cn3)nc2n(C2CCCC2)c1=O [Palbociclib] (partner 0.5 µM)
Method in brief: as §1

[5] = compound: COc1cc(-c2nn([C@H]3CC[C@H](N4CCN(C(C)=O)CC4)CC3)c3ncnc(N)c23)ccc1NC(=O)c1cc2ccccc2n1C + CS(=O)(=O)N1CCN(Cc2cc3nc(-c4cccc5[nH]ncc45)nc(N4CCOCC4)c3s2)CC1 [Pictilisib] (partner 1 µM)
Method in brief: as §1

| Cell Line | relative viability ([1]; first compound 0.01 µM) | relative viability ([1]; first compound 0.03162 µM) | relative viability ([1]; first compound 0.1 µM) | relative viability ([1]; first compound 0.3162 µM) | relative viability ([2]; first compound 0.01 µM) | relative viability ([2]; first compound 0.03162 µM) | relative viability ([2]; first compound 0.1 µM) | relative viability ([2]; first compound 0.3162 µM) | relative viability ([3]; first compound 0.0128 µM) | relative viability ([3]; first compound 0.04048 µM) | relative viability ([3]; first compound 0.128 µM) | relative viability ([3]; first compound 1.28 µM) | relative viability ([4]; first compound 0.01 µM) | relative viability ([4]; first compound 0.03162 µM) | relative viability ([4]; first compound 0.1 µM) | relative viability ([4]; first compound 0.3162 µM) | relative viability ([5]; first compound 0.0128 µM) | relative viability ([5]; first compound 0.04048 µM) | relative viability ([5]; first compound 0.128 µM) | relative viability ([5]; first compound 1.28 µM) |
| --- | --- | --- | --- | --- | --- | --- | --- | --- | --- | --- | --- | --- | --- | --- | --- | --- | --- | --- | --- | --- |
| PC-3 [JPC-3] | 0.891 | 0.734 | 0.683 | 0.85 | 0.99 | 0.824 | 0.966 | 0.943 | 0.94 | 0.823 | 0.827 | 0.819 | 0.561 | 0.554 | 0.546 | 0.602 | 0.65 | 0.791 | 0.721 | 0.764 |
| EMC-BAC-2 | 1.08 | 0.998 | 1.04 | 1.1 | 0.704 | 0.754 | 0.647 | 0.696 | 1.03 | 1.12 | 1.04 | 1.12 | 0.489 | 0.531 | 0.489 | 0.456 | 0.547 | 0.501 | 0.504 | 0.494 |
| LK-2 |  |  |  |  | 0.243 | 0.235 | 0.233 | 0.17 |  |  |  |  | 0.595 | 0.692 | 0.701 | 0.861 | 0.557 | 0.543 | 0.55 | 0.375 |
| NCI-H2126 | 1.07 | 1.08 | 1.03 | 1.12 | 1.02 | 0.951 | 0.965 | 1.04 | 1.17 | 1.17 | 1.06 | 1.03 | 0.332 | 0.364 | 0.359 | 0.383 | 0.567 | 0.434 | 0.48 | 0.438 |
| NCI-H3122 | 0.991 | 0.968 | 1.04 | 1.02 | 0.286 | 0.258 | 0.3 | 0.331 | 1.14 |  | 1.01 | 0.788 | 0.156 | 0.241 | 0.197 | 0.229 | 0.552 |  | 0.548 | 0.484 |
| NCI-H1975 | 0.325 | 0.513 | 0.446 | 0.322 | 1 | 0.963 | 0.863 | 0.623 | 0.401 | 0.399 | 0.332 | 0.199 | 0.524 | 0.65 | 0.564 | 0.583 | 0.322 | 0.31 | 0.234 | 0.149 |
| NCI-H1944 |  |  |  |  | 1.07 | 1.08 | 1 | 1.1 |  |  |  |  | 0.36 | 0.402 | 0.318 | 0.35 | 0.362 | 0.301 | 0.327 | 0.285 |
| NCI-H1299 | 1.03 | 0.987 | 0.95 | 1.01 | 0.929 | 0.914 | 0.941 | 0.86 | 1.02 | 1.14 | 1.06 | 1.22 |  |  |  |  | 0.681 | 0.806 | 0.668 | 0.385 |
| NCI-H1793 |  |  |  |  |  |  |  |  |  |  |  |  | 0.305 | 0.349 | 0.354 | 0.342 | 0.424 | 0.288 | 0.285 | 0.311 |
| SW 900 |  |  |  |  |  |  |  |  |  |  |  |  | 0.574 | 0.587 | 0.545 | 0.639 |  |  |  |  |
| NCI-H596 | 0.902 | 1.12 | 1.1 | 1.07 | 0.957 | 1.12 | 1.11 | 1.1 | 1.03 | 1.31 | 0.908 | 0.954 |  |  |  |  | 0.412 | 0.451 | 0.356 | 0.44 |
| NCI-H1563 | 0.888 | 0.937 | 0.761 | 0.888 | 0.817 | 0.872 | 0.85 | 0.834 | 0.916 | 0.882 | 0.824 | 0.664 |  |  |  |  | 0.682 | 0.641 | 0.656 | 0.606 |
| A549 |  |  |  |  | 0.796 | 0.665 | 0.589 | 0.26 |  |  |  |  |  |  |  |  | 0.538 | 0.63 | 0.429 | 0.501 |
| NCI-H2342 |  |  |  |  |  |  |  |  |  |  |  |  | 0.477 | 0.538 | 0.491 | 0.547 |  |  |  |  |
| NCI-H2170 |  |  |  |  | 1.18 | 1.24 | 1.15 | 1.29 |  |  |  |  | 0.394 | 0.397 | 0.406 | 0.454 | 0.297 | 0.353 | 0.334 | 0.248 |
| NCI-H522 |  |  |  |  |  |  |  |  |  |  |  |  | 1.01 | 0.876 | 0.967 | 1.32 |  |  |  |  |
| NCI-H1395 |  |  |  |  |  |  |  |  |  |  |  |  | 0.626 | 0.753 | 0.639 | 0.703 | 0.578 | 0.711 | 0.512 | 0.486 |
| IA-LM | 0.85 |  | 0.946 | 0.783 | 0.751 | 0.712 | 0.606 | 0.448 | 0.847 | 1.07 | 0.896 | 0.631 |  |  |  |  | 0.345 | 0.443 | 0.324 | 0.334 |
| NCI-H358 |  |  |  |  | 0.528 | 0.596 | 0.563 | 0.292 |  |  |  |  | 0.123 | 0.134 | 0.114 | 0.136 | 0.395 | 0.331 | 0.277 | 0.249 |
| EBC-1 | 0.756 | 0.485 | 0.502 | 0.427 | 0.164 | 0.231 | 0.197 | 0.2 | 0.575 | 0.554 | 0.521 | 0.481 |  |  |  |  | 0.407 | 0.447 | 0.416 | 0.393 |
